Reference: PubChem BioAssay AID2753 (Vanderbilt High Throughput Screening Facility, 2010)
Calls of active or inactive are those of the source. The rule behind the calls is not given here.

Molecular target: ATP-sensitive inward rectifier potassium channel 1 (Homo sapiens) (UniProt P48048)
Experiment: ROMK channel inhibitor potency, dose response, cell-based, thallium flux, HEK293 (AID 2753)
Conditions: fluorescence

Chain of ATP-sensitive inward rectifier potassium channel 1 (Homo sapiens) (P48048 whole entry, looked up): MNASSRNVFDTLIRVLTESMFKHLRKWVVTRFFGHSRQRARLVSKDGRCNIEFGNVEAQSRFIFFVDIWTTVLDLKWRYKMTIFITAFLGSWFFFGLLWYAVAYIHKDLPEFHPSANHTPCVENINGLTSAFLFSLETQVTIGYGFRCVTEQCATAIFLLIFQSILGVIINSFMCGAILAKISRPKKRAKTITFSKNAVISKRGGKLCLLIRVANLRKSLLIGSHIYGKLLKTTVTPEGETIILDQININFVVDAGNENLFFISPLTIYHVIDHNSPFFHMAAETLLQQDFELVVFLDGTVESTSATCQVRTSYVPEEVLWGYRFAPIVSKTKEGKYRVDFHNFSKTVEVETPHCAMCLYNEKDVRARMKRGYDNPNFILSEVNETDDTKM

| Structure (SMILES) | IC50 |
| --- | --- |
| N#Cc1cccc(N=c2ssnc2Cl)c1 | 8.39 µM |
| CC(C)C(c1nnnn1Cc1ccccc1)N1CCN(Cc2ccc3c(c2)OCO3)CC1 (configuration not stated) | 5.83 µM |
| COc1cc(NC(=O)C2CCN(S(=O)(=O)c3ccc(Cl)cc3)CC2)ccc1-n1cnnn1 | 2.1 µM |
| O=[N+]([O-])c1ccc(N2CCCNCC2)c2ncccc12 | 10.7 µM |
| O=C(c1ccc([N+](=O)[O-])cc1)N(Cc1ccc(Br)cc1)N1C(=O)CCCC1=O | 0.32 µM |
| CC1CCCCC1NC(=O)CN1C(=O)CSc2cc(S(=O)(=O)N3CCCCCC3)ccc21 (configuration not stated) | 55.3 µM |
| CCOCCCNC(=O)/C(C#N)=C/c1ccccc1F | inactive |
| COc1ccc(C2(O)CCN(CCCCOc3ccccc3)CC2)cc1 | 10.8 µM |
| COc1ccc2c(c1OC)C(=O)OC2Nc1nc(-c2cc3ccccc3oc2=O)cs1 (configuration not stated) | inactive |
| COC(=O)C(=Cc1ccccc1[N+](=O)[O-])C(=O)OC | 8.19 µM |
| O=C1C=CC(=O)C(C2=C3C(=O)N(CCc4ccccc4)CC(=O)N3CCC2)=C1 | 13 µM |
| O=C(/C(=C/c1ccc(Cl)cc1)c1nc2ccccc2[nH]1)c1cccs1 | 4.56 µM |
| COCCNC(=O)/C(C#N)=C/c1c(F)cccc1Cl | 9.2 µM |
| CNC(=O)c1nnsc1S(=O)c1ccc(Cl)cc1 (configuration not stated) | 0.647 µM |
| CCOC(=O)N1CCN(S(=O)(=O)c2ccc3c(c2)SCC(=O)N3)CC1 | inactive |
| CS(=O)(=O)N1CCc2cc(-c3csc(NC(=O)Cc4cccs4)n3)ccc21 | inactive |
| COCCNC(=O)/C(C#N)=C/c1cccc(/C=C(\C#N)C(=O)NCCOC)c1 | 2.87 µM |
| CCOCCCNC(=O)/C(C#N)=C/c1ccc(C(=O)OC)cc1 | inactive |
| Cc1cc(=O)oc2cc(NC(=S)NCc3ccccn3)ccc12 | 7.2 µM |
| COC(=O)C1=C(C)N(C)C(C)=C(C(=O)OC)C1c1ccccc1C | 39.9 µM |
| O=C(CN1CCCC1)Nc1c2c(nc3ccccc13)N(Cc1ccccc1)CC2 | inactive |
| CC1CCCCC1NC(=O)/C(C#N)=C/c1ccccc1F (configuration not stated) | 4.75 µM |
| O=C1CC(N2CCN(Cc3ccc4c(c3)OCO4)CC2)C(=O)N1c1cccc2ccccc12 (configuration not stated) | inactive |

| Structure (SMILES) | IC50 |
| --- | --- |
| CCC(CC)C(=O)Nc1c2cnn(-c3ccccc3)c2nc(=O)n1-c1ccccc1 | 14 µM |
| Cc1ccc(C)n1-c1ccc(-n2cnnn2)cc1 | 10.4 µM |
| CCOC(=O)C(=Cc1ccc(-n2cncn2)cc1)C(=O)OCC | 95.8 µM |
| CC(NC(=O)/C(C#N)=C/c1cccs1)c1ccccc1 (configuration not stated) | 69.5 µM |
| CCCn1c(=S)[nH]c2cc(C(=O)N3CCCC(C(=O)OCC)C3)ccc2c1=O (configuration not stated) | inactive |
| CSc1ccc(/C=C(\C#N)C(=O)NC2CCCCC2C)cc1 (configuration not stated) | 3.24 µM |
| COC(=O)/C=C1/SC(=NC(=O)c2ccc(F)cc2)NC1=O | 19.1 µM |
| Cc1ccc(N2C(=O)NC(=O)/C(=C\C=C\c3ccco3)C2=O)cc1C | 2.33 µM |
| CCN(CC)S(=O)(=O)c1ccc(OC)c(NC(=O)CSc2cc(C)ccc2C)c1 | 12.8 µM |
| O=C(NCc1cccnc1)/C(=C/c1ccc(-c2cccc(Cl)c2)o1)S(=O)(=O)c1ccccc1 | inactive |
| c1csc(CNc2ncnc3sccc23)c1 | inactive |
| COc1cccc(/C=C2\SC(=S)N(N3C(=O)CCCC3=O)C2=O)c1 | inactive |
| N#C/C(=C\C1=C(N2CCOCC2)C(=C\c2ccccc2)/CC1)C(=O)Nc1ccccc1F | 14.5 µM |
| COC(=O)Cn1cc(/C=C/[N+](=O)[O-])c2ccccc21 | 63 µM |
| O=C(/C=C/c1cn(CC(O)CN2CCCCC2)c2ccccc12)c1ccccc1 (configuration not stated) | inactive |
| O=C(N/N=C/c1cn(-c2cccs2)nc1-c1ccccc1)c1ccc(O)cc1 | 4.99 µM |
| Cc1cc(NC(=O)/C=C/C(=O)N(CC(=O)NC2CCCC2)c2cccc3ccccc23)no1 | 9.96 µM |
| N#C/C(=C/c1ccncc1)c1nc2ccccc2s1 | 2.68 µM |
| CCCNC(=O)c1nnsc1S(=O)c1ccc(Cl)cc1 (configuration not stated) | 2.8 µM |
| CC(CCc1ccccc1)NC(=O)CN1CCN(c2ccccc2)CC1 (configuration not stated) | inactive |
| N#Cc1nc(N2CCCC2)nc(N2CCCC2)n1 | 41.7 µM |
| O=C(Cn1nc(CNc2ccc(Cl)cc2)[n+]2c1CCCCC2)c1ccc(Cl)cc1 | 5.52 µM |
| O=C(CCl)N(c1ccccc1)c1ccccc1 | inactive |

| Structure (SMILES) | IC50 |
| --- | --- |
| CC1=NOC(=O)/C1=C\c1ccc(-c2ccccc2Br)o1 | inactive |
| Cc1ccc(-n2c3nc(=O)[nH]c(=O)c-3cc3cc([N+](=O)[O-])ccc32)cc1 | 8.66 µM |
| COc1cc2c(cc1OC)C(/C=C/c1ccco1)=NCC2 | 4.07 µM |
| N#C/C(=C\C1CC=CCC1)c1nc2ccccc2[nH]1 (configuration not stated) | inactive |
| COc1ccc(CNCC(O)COc2ccc(C)cc2[N+](=O)[O-])cc1 (configuration not stated) | inactive |
| N#C/C(=C\c1ccc(O)c(Br)c1)C(=O)NCc1ccccc1 | inactive |
| CC(/C=C1\SC(=S)N(CCCC(=O)Nc2ccc(C(=O)O)cc2)C1=O)=C\c1ccccc1 | 120 µM |
| Cc1nn(-c2ccccc2)c(Cl)c1/C=C(\C#N)C(=O)NC(C)C | 45.5 µM |
| Cc1ccc(Oc2c(C(N)=O)cc([N+](=O)[O-])cc2[N+](=O)[O-])cc1 | 51 µM |
| CC(C(=O)c1ccc(-c2ccccc2)cc1)[n+]1cccc(NC(=O)c2ccccc2)c1 (configuration not stated) | 27.9 µM |
| CSC1=C(C#N)C(=O)NC(c2ccccc2O)S1 (configuration not stated) | 7.63 µM |
| CCOC(=O)CS(=O)(=O)c1nc(-c2ccccc2)cc(C(F)(F)F)n1 | 12.4 µM |
| Cc1cc(N2CCOCC2)ccc1/C=C\[N+](=O)[O-] | 3.4 µM |
| CCCNc1nc(Cl)nc(NC(C)(C)C)n1 | 2.78 µM |
| O=C1ON=C(c2cccc([N+](=O)[O-])c2)/C1=C/c1ccc(O)cc1 | 5.68 µM |
| N#CC(C#N)=C1C=CC=CN1/C(=C\c1ccccc1Cl)C(=O)c1ccccc1 | 6.03 µM |
| COc1ccccc1/C=C(\C#N)C(=O)Nc1ccc(S(N)(=O)=O)cc1 | inactive |
| COC(=O)[C@@]1(Cc2ccccc2)[C@@H]2C(=CC(=O)[C@H]2CC(=O)C(=O)N(C)C)CN1C(=O)c1ccccc1 | 81 µM |
| O=C(CCl)N(Cc1cccc([N+](=O)[O-])c1)c1cccc(Cl)c1 | 9.65 µM |
| N#Cc1ccc(/C=C/C(=O)c2cccnc2)cc1 | 4.51 µM |
| COC(=O)N/N=C/c1ccc(-c2cc(Cl)ccc2Cl)o1 | 5.79 µM |
| O=C1CCCCCN1Sc1ccccc1 | 4.49 µM |
| O=C1C=C(c2ccccc2)C(=O)N1Nc1ccccc1 | 2.77 µM |

| Structure (SMILES) | IC50 |
| --- | --- |
| O=C(O)c1ccc(Cn2cnc3scc(-c4ccccc4)c3c2=O)cc1 | 9.85 µM |
| CC(=O)/C(=C/c1ccccc1)C(=O)Nc1ccccc1C | 23 µM |
| CCN1C(=O)c2cccc3c(S(=O)(=O)Nc4ccccc4OC)ccc1c23 | inactive |
| CS(=O)(=O)n1nc(OC(=O)c2cc(Br)ccc2Cl)cc1N | inactive |
| COc1ccccc1-n1c(SCC(=O)N2CCc3ccccc32)nc2c(c1=O)SCC2 | 6.43 µM |
| CCCCNC(=O)/C(C#N)=C/c1ccc(F)cc1F | 3.93 µM |
| Cn1nc(C(F)(F)F)c(C#N)c1N1CCN(c2ccccc2)CC1 | 15.2 µM |
| Cc1ccc(/C=C(\C#N)C(=O)NCCN2CCOCC2)cc1 | inactive |
| CC1CN(c2ccc([N+](=O)[O-])c(NCCOc3ccccc3)c2)CCN1 (configuration not stated) | inactive |
| N#C/C(=C\c1cccc([N+](=O)[O-])c1)c1nnc2n1CCCCC2 | inactive |
| O=C(/C=C\c1cccs1)c1c(O)ccc2ccc(=O)oc12 | 4.79 µM |
| CCCS(=O)(=O)c1nnnn1-c1cccc(OC)c1 | inactive |
| COCc1cc(C)nc(SCC[N+](C)(C)CC(=O)Nc2cccc(C(F)(F)F)c2)c1C#N | 9.27 µM |
| COc1cc(/C=C2\C(=N)N3N=CSC3=NC2=O)cc(Br)c1OC(=O)c1ccco1 | 4.53 µM |
| Cc1c(N2C(=O)/C(=C\C3CC=CCC3)SC2=S)c(=O)n(-c2ccccc2)n1C (configuration not stated) | 2.66 µM |
| CCOC(=O)c1c(NC(=O)C[n+]2ccc(Cc3ccccc3)cc2)sc(C)c1C | inactive |
| C=CCNC(=O)/C(C#N)=C\c1cc(Cl)c(OCC)c(OC)c1 | 86.8 µM |
| COC(=O)c1cc([N+](=O)[O-])c(-n2cncn2)c([N+](=O)[O-])c1 | 5.07 µM |
| O=C(Cn1nc(Cl)nc1Cl)c1cc2ccccc2oc1=O | 18 µM |
| CCc1cccc(NC(=O)CSC2=NS(=O)(=O)c3ccccc32)c1 | inactive |
| COc1cc(NC(C)=O)c2ncccc2c1[N+](=O)[O-] | 21.1 µM |
| COc1ccc(NC(=O)/C(C#N)=C/c2ccc(Sc3nncn3C)c([N+](=O)[O-])c2)cc1 | 4.29 µM |
| COc1cc(/C=C(/C(=O)c2cccs2)c2nc3ccccc3[nH]2)ccc1O | inactive |

| Structure (SMILES) | IC50 |
| --- | --- |
| CCOc1cc(C)c(Cl)cc1S(=O)(=O)NC1CC(C)(C)NC(C)(C)C1 | 82.8 µM |
| COC(=O)/C=C1\SC(=NC(=O)c2cccc(Cl)c2)NC1=O | inactive |
| CNC(=O)c1nnsc1S(=O)(=O)c1ccc(Cl)cc1 | 7.46 µM |
| COc1cccc(C(c2nnnn2Cc2ccccc2)N2CCN(C3CCCC3)CC2)c1OC (configuration not stated) | 35.6 µM |
| N#C/C(=C/c1cc(Br)cs1)C(=O)NCC1CCCO1 (configuration not stated) | inactive |
| COc1ccc(-n2nc(C#N)c(Cl)cc2=O)cc1 | 10.3 µM |
| Cn1c(=O)c([N+](=O)[O-])c(Cl)c2ccccc21 | 5.56 µM |
| Cc1cnc2ncc3sccc3c2c1 | 13.5 µM |
| O=C(NC1CCCCCC1)c1cc(S(=O)(=O)N2CCCCC2)ccc1N1CCOCC1 | 5.44 µM |
| CN(CCCC(=O)Nc1ccncc1)S(=O)(=O)c1ccc(Cl)cc1 | inactive |
| CN(C)c1cc(O)c(C(=S)Nc2ccccc2)c(N(C)C)c1 | 75.5 µM |
| CC(=O)c1c(C)nc(-c2cccc([N+](=O)[O-])c2)n1O | inactive |
| Cc1nn(CCCC(=O)N2CCN(c3ccc(F)cc3)CC2)c(C)c1[N+](=O)[O-] | inactive |
| O=C1c2cccc3c([N+](=O)[O-])ccc(c23)C(=O)N1CC1CCCO1 (configuration not stated) | inactive |
| O=[N+]([O-])c1ccc(S(=O)(=O)N2CCN(Cc3c[nH]c4ccccc34)CC2)cc1 | inactive |
| Cc1ccc(C2=NOC(=O)/C2=C\c2ccc(C)o2)cc1 | 5.22 µM |
| Cc1cc(C)c(C)c(S(=O)(=O)NC2CCN(Cc3ccccc3)CC2)c1C | 17 µM |
| N#CC1=C(N)N(c2ccccc2)C(c2cccc([N+](=O)[O-])c2)C1(C#N)C#N (configuration not stated) | 11.5 µM |
| CCCC(C(=O)NCc1ccco1)N(C(=O)CNS(=O)(=O)c1ccccc1)c1ccccc1OC (configuration not stated) | inactive |
| Cc1cc(Cl)c(S(=O)(=O)Nc2ccc3c(c2)OCCO3)cc1OCC(=O)NC1CCCCC1 | 3.55 µM |
